Assay results taken from ChEMBL document CHEMBL5512696, “Discovery of a Novel ASM Direct Inhibitor with a 1,5-Diphenyl-pyrazole Scaffold and Its Antidepressant Mechanism of Action” (J Med Chem, 2024).
Activity calls are given as the source filed them.

How the values were obtained:
Format in all cases: functional, organism-based
Conditions in all cases: time 2.0 weeks
Mus musculus [1] = assay: (§1) Antineuroinflammatory activity in ICR mouse model of chronic unpredictable mild stress assessed as reduction in IL-6 level in serum at 12 mg/kg, ip administered once a day for 1 week post 8 week of chronic unpredictable mild stress and measured after 1 week by ELISA
Mus musculus [2] = assay: Antineuroinflammatory activity in ICR mouse model of chronic unpredictable mild stress assessed as reduction in IL-1beta level in serum at 12 mg/kg, ip administered once a day for 1 week post 8 week of chronic unpredictable mild stress and measured after 1 week by ELISA
Mus musculus [3] = assay: as §1, with “Antidepressant” for “Antineuroinflammatory”, “oxidative stress by measuring reduction in MDA” for “IL-6”, “cerebral cortex” for “serum”
Mus musculus [4] = assay: Antineuroinflammatory activity in ICR mouse model of chronic unpredictable mild stress assessed as reduction in TNFalpha level in serum at 12 mg/kg, ip administered once a day for 1 week post 8 week of chronic unpredictable mild stress and measured after 1 week by ELISA
Mus musculus [5] = assay: (§2) Antidepressant activity in ICR mouse model of chronic unpredictable mild stress assessed as reduction in sphingosine-1-phosphate level in hippocampus at 12 mg/kg, ip administered once a day for 1 week post 8 week of chronic unpredictable mild stress and measured after 1 week by ELISA
Mus musculus [6] = assay: Antidepressant activity in ICR mouse model of chronic unpredictable mild stress assessed as reduction in sphingosine-1-phosphate level in cerebral cortex at 12 mg/kg, ip administered once a day for 1 week post 8 week of chronic unpredictable mild stress and measured after 1 week by ELISA
Mus musculus [7] = assay: Antidepressant activity in ICR mouse model of chronic unpredictable mild stress assessed as reduction in sphingomyelin level in cerebral cortex at 12 mg/kg, ip administered once a day for 1 week post 8 week of chronic unpredictable mild stress and measured after 1 week by ELISA
Mus musculus [8] = assay: as §2, with “downregulation of neuronal apoptosis by measuring increase” for “reduction”, “BDNF protein” for “sphingosine-1-phosphate”, “Western blot analysis” for “ELISA”
Mus musculus [9] = assay: In vivo inhibition of ASM in ICR mouse model of chronic unpredictable mild stress assessed as increase in 5-HT uptake in hippocampus at 12 mg/kg, ip administered once a day for 1 week post 8 week of chronic unpredictable mild stress and measured after 1 week by ELISA

CNCCC(Oc1ccc(C(F)(F)F)cc1)c1ccccc1 (centres undefined)
active: Activity (Mus musculus [1]) | Activity (Mus musculus [2]) | Activity (Mus musculus [3]) | Activity (Mus musculus [4]) | Activity (Mus musculus [5]) | Activity (Mus musculus [6]) | Activity (Mus musculus [7]) | Activity (Mus musculus [8]) | inhibition (Mus musculus [9])
